Test results taken from patent US11746103B2, “ALK-5 inhibitors and uses thereof” (Sumitomo Pharma Oncology, Inc., priority 2020, dated 2023).
“Also recorded” adds a separate entry of the source.

Tests used:
[1] = system: bleomycin-induced lung fibrosis; test: Bleomycin-induced lung fibrosis study; assay type: in vivo, mouse
Source text: Fibrosis, the formation of excess connective tissue causing stromal hardening and scar formation is a hallmark of cancer. Up to 20% of cancers are linked to chronic, inflammation-related fibrosis, including hepatocellular, gastric, esophageal, head and neck, colon, pancreatic, cervix, and vulvar cancers. The contribution of fibrosis for early cancer development remains unclear; however, in some advanced solid tumors it is believed that fibrotic tissues act like a barrier, preventing therapeutic agents like chemotherapy or biologics from penetrating the tumor tissue. Additionally, strong fibrotic tissue is thought to contribute to excluding immune cells from entering the tumor core, creating immune excluded or immune desert phenotypes. To evaluate the anti-fibrotic properties of Ex-11, a prophylactic model of bleomycin-induced lung fibrosis in male C57BL/6 mice was utilized, and various endpoints evaluated.
All mice in this study were 8-week-old male C57BL/6 mice purchased from Taconic. On Day −2 prior to bleomycin administration, all animals were weighed and distributed into groups with 10 mice each (Table 18) such that each group of animals contained animals of similar body weights.
On day 0, animals were treated with 1.5 U/kg bleomycin (Blenoxane catalog number NDC 61703-323-22, Hospira Pharmaceutical) intratracheally, except Group 1, which was administered normal saline via oropharyngeal route to serve as the healthy naïve control group. Prophylactic treatment was administered from one day prior to bleomycin administration to day 21 post bleomycin administration. On Day 21, only the morning dose was administered. Animals were harvested on day 21 and lung weights were measured. Body weights of all mice was recorded at least three times a week beginning on Day −2 and ending on the day of harvest, Day 21. Pirfenidone was used as positive control compound, as it is an FDA-approved drug for the treatment of idiopathic pulmonary fibrosis (IPF) in humans. All compounds were prepared in 10% Tween-20 in water; a homogenous suspension was formulated using a magnetic stir bar.
At the end of the study, total lung tissues were weighed and fixed for histological examination, which was conducted by a trained pathologist blinded to the treatment groups. Specifically, whole lungs from each mouse were paraffin-embedded in a single block. Two slides from each block were sectioned to the depth of the mainstem bronchi (near the center of each lobe) and stained with either hematoxylin and eosin (H&E) or Masson's trichrome (MT). Glass slides were evaluated using light microscopy by a board-certified veterinary pathologist. Lung sections were scored according to the methods described below, evaluating five randomly chosen fields in each tissue. Fixed lungs were sectioned, and consecutive tissue sections were stained with H&E or MT. Various pathological scoring parameters were used to determine the average Ashcroft score, as well as average inflammation and collagen deposition indicating fibrosis.
Parameter of scoring formalin fixed lung sections:
Modified Ashcroft Score: H&E-stained lung sections were scored according to the modified Ashcroft scale. Scores for five representative 200× microscopic fields per sample were averaged to obtain a mean score for each animal. […]

ES-2-luc cells = test: ES-2 survival study (ovarian cancer xenograft); assay type: in vivo, mouse; settings: 150 mg/Kg twice a day, P.O.
Source text: Ovarian cancer is still associated with poor prognosis and remains among the leading causes of oncology-related deaths in females. High recurrence rates, resistance to chemotherapy and meager outcome highlight the need for improved therapies that stem from understanding the complex and multifactorial etiology of ovarian malignancies. TGF-01 signaling within tumor microenvironment regulates important steps in ovarian cancer progression such as epithelial to mesenchymal transition, dissemination, and metastasis. Inhibition of TGF-01 signaling pathway has shown a potential as a pharmaceutical target in ovarian malignancies. ES-2 ovarian cancer mouse xenograft model was used to test efficacy of EX-11 in ovarian cancer, as measured by improvement in survival.
Sixteen-week-old female athymic nude mice were injected with two million ES-2-luc cells. […]
Mortality was recorded for animals found dead in the cage, and for the animals sacrificed based on humane end point based on main three criteria—loss of mobility and response, wasting with pronounced ascites fluid buildup, and palpable drop in body temperature (animals were assessed as cold to touch when handled in gloves).
On study day 22, the remaining surviving animals in the vehicle group were determined moribund, and the study was terminated based on humane end point criteria. […]

[2] = Description: Female, athymic nude mice (aged 6-8 weeks) were randomized to one of 12 study arms (n=3 per arm) (Table 16) and weighed prior to dosing. Mice were dosed via oral gavage either once daily (QD), or bi-daily (BID) for five days. […] The vehicle for PF-06952229 (PF) was 10% DMSO, 40% PEG300, 5% tween-80, 45% saline. For the vehicle alone group in this study, the PF-06952229 vehicle was used. At the end of each day for 10 days, mice were weighed, and symptoms of toxicity (if present) were recorded. A qualitative determination of overall toxicity was made based on the number and severity of symptoms for each cohort. The safety margin was determined at the end of day 10 based on the following equation: (maximum tolerated dose)/(minimum effective dose).
[3] = system: antigen presentation pathway (APP); test: Nanostring differential gene expression analyses of 4T1, EMT6 and S91 tumors; assay type: in vivo, mouse; settings: 4T1, EMT6, S91 tumors
Source text: The objective of this study was to determine the differential gene expression (DGE) patterns of 4T1, EMT6, and S91 tumors treated with EX-11+immune checkpoint inhibitor (ICI), EX-11 alone, ICI alone, or vehicle control. For the purpose of this study, ICI=anti-PD-1 or anti-PD-L1, as indicated.
For NanoString assays, tumors from three syngeneic models of cancer were used:
RNA was isolated from the frozen tumors of ≥3 mice per group using the Direct-Zol RNA Miniprep (Zymo Research). The treatment arms and number of mice/tumors used for downstream applications is outlined in Table 17 (R=Responder, NS=Non-responder).
Equal concentrations of RNA for each tumor within each group were pooled. Two-hundred ng of RNA per group was used for downstream applications. Three separate NanoString nCounter panels were used per protocol: 1) Fibrosis, 2) PanCancer Pathways, 3) Immunology. RCC raw data files were uploaded into nCounter 4.0 software where counts were normalized to housekeeping genes. Gene lists in each panel were combined into a single spreadsheet for downstream analyses. For genes found in […], mean count values were used. RStudio software was used to generate heat maps of DGE signatures within each study for each group. Ingenuity Pathway Analysis (IPA) was used to identify the dysregulated signaling pathways within each study for each group.

For `Cc1cccc2c(Nc3ccnc(Nc4cccc(N5CCOCC5)c4)n3)cnnc12` [EX-11, N4-(8-methylcinnolin-4-yl)-N2-(3-morpholinophenyl)pyrimidine-2,4-diamine], the body weight loss ([1]; 75 mg/kg twice a day) was “No severe weight loss of over 5-10%”, the “average Ashcroft score” value ([1]; H&E, vs bleomycin/vehicle) was “highly statistically significant reduction in the average score” and the “average lung inflammation score” value ([1]; H&E, vs bleomycin/vehicle) was “highly statistically significant reduction in the average score”. For the same compound, the “average lung fibrosis/collagen deposition score” value ([1]; Masson's trichrome, vs bleomycin/vehicle) was “highly statistically significant reduction in the average score”, the “lung weight normalized to total animal weight (lung weight index)” value ([1]; day 21, vs bleomycin/vehicle) was “highly statistically significant” and the total lung weight ([1]; day 21, vs bleomycin/vehicle) was “significant decrease in lung weight”. The “overall survival compared with vehicle-treated animals” value (ES-2-luc cells) was “significantly increased; also recorded: significantly improved”, the minimum effective dose ([2]; BID, based on prior studies with EX-11) was 150 mg/kg and the “safety margin (maximum tolerated dose)/(minimum effective dose)” value ([2]; female, athymic nude, mouse, in vivo, 10 days) was ≥ 6.7 fold. For the same compound, the “antigen presentation pathway (APP) in tumors” value [3] was “upregulates the APP in tumors”.
